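Following 48 hours of exposure in 96-well plates, responses at five concentrations were used to interpolate endpoints linearly. GI50 is the concentration that inhibits growth by half. At the TGI there is no net growth.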
Columns and labels:
Assay in all cases: NCI tumour cell line growth inhibition, 48 h
[1] = system: HCC-2998 colon
[2] = system: 786-0 renal
[3] = system: RPMI-8226 leukemia
[4] = system: SK-MEL-5 melanoma
[5] = system: EKVX NSCLC
[6] = system: NCI-H23 lung
[7] = system: HCT-116 colon
[8] = system: SF-295 CNS

CC#CC1C(OC(=O)c2ccccc2)CCCC1(CI)N=[N+]=[N-] (stereo not drawn)
TGI [1]: > 100 µM
TGI [2]: > 100 µM
TGI [3]: 86.2 µM
TGI [4]: 42.2 µM
TGI [5]: > 100 µM
TGI [6]: > 100 µM
TGI [7]: > 100 µM
TGI [8]: > 100 µM

C=CC1C(OC2OC(CO)C(O)C(O)C2O)OC=C(C(=O)OC)C1CC=O (stereo not drawn)
TGI [2]: > 100 µM
TGI [3]: > 100 µM
TGI [4]: > 100 µM
TGI [5]: > 100 µM
TGI [6]: > 100 µM
TGI [8]: > 100 µM

N#Cc1cc([N+](=O)[O-])ccc1NC(=O)/C(=N/N)C(C(=O)c1ccc(Cl)c(Cl)c1)C1OC(=O)c2ccccc21 (stereo not drawn)
TGI [1]: > 100 µM
TGI [2]: > 100 µM
TGI [3]: > 100 µM
TGI [4]: > 100 µM
TGI [5]: > 100 µM
TGI [6]: > 100 µM
TGI [7]: > 100 µM
TGI [8]: > 100 µM

CC(=O)Nc1ccc(/C=C/C(=O)c2sc(-c3nc(C)c(C(=O)/C=C/c4ccc(NC(C)=O)cc4)s3)nc2C)cc1
TGI [1]: > 100 µM
TGI [2]: > 100 µM
TGI [5]: > 100 µM
TGI [6]: > 100 µM
TGI [7]: > 100 µM
TGI [8]: > 100 µM

COC(=O)C1=C(O)c2cc3c(cc2[C@H](c2cc(OC)c(OC)c(OC)c2)C1C(=O)OC)OCO3 (stereo partly drawn)
TGI [1]: > 100 µM
TGI [2]: > 100 µM
TGI [3]: > 100 µM
TGI [4]: > 100 µM
TGI [5]: > 100 µM
TGI [6]: > 100 µM
TGI [7]: > 100 µM
TGI [8]: > 100 µM

CCOC(=O)C1=C(Nc2cccc3ccccc23)OC/C1=N\NC(=O)c1ccccc1O
TGI [1]: > 100 µM
TGI [2]: > 100 µM
TGI [3]: > 100 µM
TGI [4]: 37.4 µM
TGI [5]: > 82.7 µM
TGI [6]: 15.3 µM
TGI [7]: > 69.6 µM
TGI [8]: > 100 µM

COC(=O)C1=C(C(=O)OC)SC(=C(N=Nc2ccccc2)c2ccccc2)S1
TGI [1]: > 100 µM
TGI [2]: > 100 µM
TGI [3]: > 100 µM
TGI [4]: > 100 µM
TGI [5]: > 100 µM
TGI [6]: > 100 µM
TGI [7]: > 100 µM
TGI [8]: > 100 µM

O=c1[nH]c(-c2ccc(-c3nc4cc([N+](=O)[O-])ccc4c(=O)[nH]3)cc2)nc2cc([N+](=O)[O-])ccc12
TGI [1]: > 100 µM
TGI [2]: > 100 µM
TGI [3]: > 100 µM
TGI [4]: > 100 µM
TGI [5]: > 100 µM
TGI [6]: > 100 µM
TGI [7]: > 100 µM
TGI [8]: > 100 µM

O=C1NC2C=CN(Cc3ccccc3)C=C2C(=O)N2CCCC12 (stereo not drawn)
TGI [1]: > 100 µM
TGI [2]: > 100 µM
TGI [4]: > 100 µM
TGI [5]: > 100 µM
TGI [6]: > 100 µM
TGI [7]: > 100 µM
TGI [8]: > 100 µM

CCC(=O)N(O)C(C)(C)C
TGI [1]: > 100 µM
TGI [2]: > 100 µM
TGI [3]: > 100 µM
TGI [4]: > 100 µM
TGI [6]: > 100 µM
TGI [7]: > 100 µM
TGI [8]: > 100 µM

C/C=C/C=C/CCCCCCCCCCCCCC1(OC)C=CC(CC(=O)OC)OO1 (stereo not drawn)
GI50 [1]: 3.5 µM
TGI [1]: 9.99 µM
GI50 [2]: 1.75 µM
TGI [2]: 3.51 µM
TGI [3]: 46 µM
TGI [4]: 22.6 µM
GI50 [5]: 5.69 µM
TGI [5]: 17.5 µM
GI50 [6]: 4.3 µM
TGI [6]: 14 µM
TGI [7]: 21.7 µM
GI50 [8]: 2.58 µM
TGI [8]: 6.34 µM

COc1cc(C)c(O)c(C(=O)O)c1
TGI [1]: > 100 µM
TGI [2]: > 100 µM
TGI [4]: > 100 µM
TGI [6]: > 100 µM
TGI [7]: > 100 µM
TGI [8]: > 100 µM

C=C1CCC2[C@@H](CCC3[C@]2(C)CCC[C@]3(C)C(=O)OC)C1CCO (stereo partly drawn)
TGI [2]: 49.2 µM
TGI [3]: 17 µM
TGI [4]: 17.5 µM
TGI [5]: 37.9 µM
TGI [6]: 23.2 µM
TGI [7]: 19.2 µM
TGI [8]: 30.9 µM

CC(=O)NC1CC2Oc3ccc(C)cc3C(C)(O2)C1O (stereo not drawn)
TGI [2]: > 100 µM
TGI [3]: > 100 µM
TGI [5]: > 100 µM
TGI [6]: > 100 µM
TGI [7]: > 100 µM
TGI [8]: > 100 µM

CCN(CC)CC(C(=O)Nc1c(C)cccc1C)/C(C)=N\NC(=O)c1ccncc1 (stereo not drawn)
TGI [1]: > 100 µM
TGI [2]: > 100 µM
TGI [4]: > 100 µM
TGI [6]: > 100 µM
TGI [7]: > 100 µM
TGI [8]: > 100 µM

COc1cc(/C=C/C(=O)c2sc(NNC(C)=O)nc2C)ccc1O
TGI [1]: > 100 µM
TGI [2]: > 100 µM
TGI [3]: > 100 µM
TGI [4]: > 100 µM
TGI [5]: > 100 µM
TGI [6]: > 100 µM
TGI [8]: > 100 µM

C=CCNC(=O)NCCCC(NC(C)=O)C(=O)NCc1ccccc1 (stereo not drawn)
TGI [2]: > 100 µM
TGI [3]: > 100 µM
TGI [4]: > 100 µM
TGI [5]: > 100 µM
TGI [6]: > 100 µM
TGI [8]: > 100 µM

O=C1CCC2(c3ccccc3)Nc3ncccc3N12 (stereo not drawn)
TGI [1]: > 100 µM
TGI [2]: > 100 µM
TGI [3]: > 100 µM
TGI [4]: > 100 µM
TGI [5]: > 100 µM
TGI [6]: > 100 µM
TGI [8]: > 100 µM

O=C(Nc1nc(=S)c2c(ncn2CCO)[nH]1)c1ccccc1
TGI [2]: > 100 µM
TGI [3]: > 100 µM
TGI [4]: > 100 µM
TGI [5]: > 100 µM
TGI [7]: > 100 µM
TGI [8]: > 100 µM

O=C1c2ccccc2CC1C1(O)C(=O)Nc2ccccc21 (stereo not drawn)
TGI [2]: > 100 µM
TGI [3]: > 100 µM
TGI [4]: > 100 µM
TGI [5]: > 100 µM
TGI [6]: > 100 µM
TGI [7]: > 100 µM
TGI [8]: > 100 µM

COC(=O)c1cc(-c2cccn2C)c2c(c1C(=O)OC)c1ccccc1n2C
TGI [1]: > 100 µM
TGI [2]: > 100 µM
TGI [3]: > 100 µM
TGI [4]: > 100 µM
TGI [6]: > 100 µM
TGI [8]: > 100 µM

CCCC(Sc1ccccc1)P(=O)(c1ccccc1)c1ccccc1 (stereo not drawn)
TGI [2]: > 100 µM
TGI [3]: 51.8 µM
TGI [4]: 87.2 µM
TGI [5]: 84.1 µM
TGI [6]: > 100 µM
TGI [7]: > 100 µM
TGI [8]: > 100 µM

Reference: PubChem BioAssay (NCI)
